Calls of active or inactive are those of the source. The calls are words filed in the database; no cut-off is given here.
Assays:
[1] = system: Glioblastoma stem cell; experiment: Inhibition of cell proliferation of human Glioblastoma stem cell assessed as reduction in viable cell number at 100 to 500 nM measured after 72 hrs by trypan blue exclusion assay; format: functional, cell-based; settings: dose 100-500 nM
[2] = system: Glioblastoma stem cell; experiment: Activation of AMPK in human Glioblastoma stem cell assessed as inhibition of cell growth at 500 nM measured after 48 hrs; format: cell-based
[3] = system: Glioblastoma stem cell; experiment: Activation of AMPK in human Glioblastoma stem cell assessed as increase in AMPK phosphorylation level at 500 nM measured after 48 hrs; format: cell-based
[4] = system: Glioblastoma stem cell; experiment: Inhibition of cell proliferation of human Glioblastoma stem cell assessed as reduction in viable cell number at 500 nM measured after 72 hrs by trypan blue exclusion assay; format: functional, cell-based
[5] = system: U-251; experiment: Synergistic antiproliferative activity against human U-251 cells incubated for 6 days in presence of temozolomide by trypan blue staining based automated cell counter analysis; format: functional; settings: U-251, 144 h, time 6 day, read-out: ED50 (the source's name)
[6] = Antiproliferative activity against human Glioblastoma stem cell assessed as reduction in cell count at 100 to 500 nM measured after 72 hrs by trypan blue exclusion assay; format: functional; settings: dose 100-500 nM
[7] = system: U-251; experiment: Synergistic antiproliferative activity against human U-251 cells assessed as combination index at ED50 concentration incubated for 6 days in presence of temozolomide by trypan blue staining based automated cell counter analysis; format: functional; settings: time 6 day
[8] = system: Glioblastoma cell line; experiment: Antitumor activity against human Glioblastoma stem cell xenografted in mouse model assessed as suppression of tumor growth by measuring luminescence signals at 10 mg/kg, ip administered 3 times in a week for and measured after 3 weeks by IVIS Lumina XR imaging system; format: functional, organism-based
[9] = system: Glioblastoma cell line; experiment: Antitumor activity against human Glioblastoma stem cell xenografted in mouse model assessed as improvement in event-free survival rate at 10 mg/kg, ip administered 3 times in a week for 40 days; format: functional, organism-based; settings: time 40.0 day
[10] = system: U-251; experiment: Synergistic antiproliferative activity against human U-251 cells assessed as combination index at ED75 concentration incubated for 6 days in presence of temozolomide by trypan blue staining based automated cell counter analysis; format: functional; settings: time 6 day
[11] = system: Glioblastoma stem cell; experiment: Activation of AMPK in human Glioblastoma stem cell assessed as decrease in intracellular ATP level at 500 nM measured after 48 hrs by celltiter-glo luminescent cell viability assay; format: cell-based; settings: filed as activator
[12] = system: Glioblastoma stem cell; experiment: Activation of AMPK in human Glioblastoma stem cell assessed as increase in intracellular AMP level at 500 nM measured after 48 hrs by AMP-Glo assay; format: cell-based; settings: filed as activator
[13] = system: Glioblastoma stem cell; experiment: Activation of AMPK in human Glioblastoma stem cell assessed as increase in AMP/ATP ratio at 500 nM measured after 48 hrs; format: cell-based; settings: filed as activator
[14] = system: SW48; experiment: Antitumor activity against human SW48 cells xenografted in CB-17 SCID mouse assessed as reduction in tumor size at 20 mg/kg administered daily and measured after 3 weeks by vernier caliper method (reference value: 997+/-180 mm3); format: functional
[15] = Toxicity in CB-17 SCID mouse xenografted with human SW48 cells assessed as drug tolerance at 20 mg/kg administered daily and measured after 3 weeks; format: organism-based; settings: in vivo, 504 h
[16] = Toxicity in CB-17 SCID mouse xenografted with human SW48 cells assessed as body weigh loss at 20 mg/kg administered daily and measured after 3 weeks; format: organism-based; settings: in vivo, 504 h

## COCCOCCOCCOCCCCCCCCCCCCNC(=O)c1csc(C)c1
[1]
  inhibition: inactive
[2]
  Activity: inactive
[3]
  Activity: inactive

## COCCOCCOCCOCCCCCCCCCCCCNC(=O)c1cscc1Br
[4]
  inhibition: Active

## CCCCCCCCCCCC[C@@H](O)[C@@H]1CC[C@@H]([C@H](O)CCCCCCCCCCNC(=O)c2ccsc2)O1
[5]
  EC50: 179 nM
[6]
  Activity: 153000
[7]
  CI: 0.972

## CCCOCCOCCOCCOCCCCCCCCCCCCNC(=O)c1ccsc1
[4]
  inhibition: Active
[1]
  inhibition: inactive

## O=C(NCCCCCCCCCCCCOCCOCCOCCO)c1ccsc1
[1]
  inhibition: inactive

## CCCCCCOCCOCCOCCOCCCCCCCCCCCCNC(=O)c1ccsc1
[1]
  inhibition: inactive

## COCCOCCOCCOCCCCCCCCCCCCNC(=O)c1ccsc1
[4]
  inhibition: Active
[6]
  Activity: 483000
[1]
  inhibition: inactive

## COCCOCCOCCOCCCCCCCCCCCCNC(=O)c1cscc1C
[1]
  inhibition: inactive

## COCCOCCOCCOCCCCCCCCCCCCNC(=O)c1ccsc1C
[1]
  inhibition: inactive

## COCCOCCOCCOCCCCCCCCCCCCNC(=O)c1csc(Br)c1
[1]
  inhibition: inactive

## CCCCCCCCCOCCOCCOCCOCCCCCCCCCCCCNC(=O)c1ccsc1
[1]
  inhibition: Active
[2]; filed as activator
  Activity: Active
[3]; filed as activator
  Activity: Active

## CCCCCCCCCCOCCOCCOCCOCCCCCCCCCCCCNC(=O)c1ccsc1
[8]
  Activity: Active
[9]
  Activity: Active
[5]
  EC50: 43 nM
[1]
  inhibition: Active
[7]
  CI: 0.325
[10]
  CI: 0.765
[2]; filed as activator
  Activity: Active
[3]; filed as activator
  Activity: Active
[11]
  Activity: Active
[12]
  Activity: Active
[13]
  Activity: Active
[14]
  Activity: 352 mm3
[15]
  Activity: Non-Toxic
[16]
  Activity: Non-Toxic

Source: ChEMBL document CHEMBL5338755, “Thiophene Carboxamide Analogs with Long Alkyl Chains Comprising Ethylene Glycol Units Inhibit Glioblastoma Cell Proliferation by Activating AMPK” (J Med Chem, 2023)
